Measurements reported in patent publication US20080014288A1, “Zinc-containing treatments for hyperphosphatemia” (priority 2004, published 2008).
“Also recorded” adds a separate entry of the source.

Test system: house male Sprague Dawley (SD) rats
Test: In vivo urinary phosphate excretion in rats fed test substance mixed in Purina 5002 diet
Set-up: species or system rat
Conditions: for % Urinary Phosphate Relative to that of Control Animals / Phosphate Excretion: Table 1; for Phosphate Excretion: urine collected on days 5 and 6; for amounts of urinary phosphate compared with control (in words): rats on zinc therapy vs control which did not go through the zinc therapy
Experimental: House male Sprague Dawley (SD) rats were used for the experiments.
To establish baseline phosphorus excretion, the rats were placed in metabolic cages for 48 hours. Their urine was collected and its phosphorus content analyzed with a Hitachi analyzer to determine phosphorus excretion in mg/day. Any rats with outlying values were excluded; and the remainder of the rats was distributed into groups.
Cellulose at 0.5% by weight was used as a negative control. For each rat, 200 g of diet was prepared.
Each rat was weighed and placed on the standard diet. After 4 days the standard diet was replaced with the treatment diet (or control diet for the control group). On days 5 and 6, urine samples from the rats at 24 hours (±30 minutes) were collected and analyzed. The test rats were again weighed, and any weight loss or gain was calculated. Any remaining food was also weighed to calculate the amount of food consumed per day. A change in phosphorus excretion relative to baseline and cellulose negative control was calculated using Excel program.
A change in phosphorus excretion relative to baseline and cellulose negative control was calculated using Excel program.

[1] = 0.5% of diet by weight in Purina 5002, cellulose 0.5% negative control
[2] = 0.5% of diet by weight in Purina 5002

In the case of `O=C[O-].O=C[O-].[Zn+2]` [Zinc Formate], the “% Urinary Phosphate Relative to that of Control Animals” value (from here on “% Urinary Phosphate Relative to that”) [1] is reported as 48.5%, the “Phosphate Excretion” value [2] is reported as 10.1 mg/day and the “amounts of urinary phosphate compared with control (in words)” value (shortened to “amounts … compared with control (in words)”) is reported as “much lower”.

With `O=C([O-])C(=O)[O-].[Zn+2]` [Zinc Oxalate] the “% Urinary Phosphate Relative to that” value [1] was 78.0%, the “Phosphate Excretion” value [2] was 16.2 mg/day and the “amounts … compared with control (in words)” value was “much lower”.

In the case of `CC(=O)[O-].CC(=O)[O-].O.O.[Zn+2]` [Zinc acetate dehydrate], the “% Urinary Phosphate Relative to that” value [1] is reported as 56.7%, the “Phosphate Excretion” value [2] is reported as 9.4 mg/day and the “amounts … compared with control (in words)” value is reported as “much lower”. The “amounts … compared with control (in words)” value (listed as zinc acetate dihydrate) was “substantially reduce”.

In the case of `[Cl-].[Cl-].[Zn+2]` [Zinc chloride], the “% Urinary Phosphate Relative to that” value [1] is reported as 50.6%, the “Phosphate Excretion” value [2] is reported as 8.8 mg/day and the “amounts … compared with control (in words)” value is reported as “much lower; also recorded: substantially reduce”.

In the case of `O.O.O=C([O-])CC(O)(CC(=O)[O-])C(=O)[O-].O=C([O-])CC(O)(CC(=O)[O-])C(=O)[O-].[Zn+2].[Zn+2].[Zn+2]` [Zinc citrate dihydrate], the “% Urinary Phosphate Relative to that” value [1] is reported as 70.8%, the “Phosphate Excretion” value [2] is reported as 12 mg/day and the “amounts … compared with control (in words)” value (citrate dihydrate) is reported as “much lower; also recorded: substantially reduce”.

In the case of `NCC(=O)[O-].NCC(=O)[O-].O.[Zn+2]` [Zinc glycinate monohydrate], the “% Urinary Phosphate Relative to that” value [1] is reported as 79.7%, the “Phosphate Excretion” value [2] is reported as 15.5 mg/day and the “amounts … compared with control (in words)” value (monohydrate) is reported as “much lower; also recorded: substantially reduce”.

For `[O]=[Zn]` [Zinc oxide], the “% Urinary Phosphate Relative to that” value [1] was 18.4%, the “Phosphate Excretion” value [2] was 3.2 mg/day and the “amounts … compared with control (in words)” value was “much lower; also recorded: substantially reduce”.

`[O-2].[Zn+2]` [zinc oxide, nanopowder, zinc oxide] was tested, and the “% Urinary Phosphate Relative to that” value (0.25% of diet by weight in Purina 5002, cellulose negative control) was 50.7% and the “Phosphate Excretion” value (0.25% of diet by weight in Purina 5002) was 9.7 mg/day.
